Experiment: mn = molality of the nth substance listed, in mol/kg
Conditions: 101 kPa, Liquid; for speed of sound: Pulse-echo method

OC[C@H]1O[C@H](OC[C@H]2O[C@H](O[C@]3(CO)O[C@H](CO)[C@@H](O)[C@@H]3O)[C@H](O)[C@@H](O)[C@@H]2O)[C@H](O)[C@@H](O)[C@H]1O [D-raffinose] + O
Conditions | mass density, 293.15 K [kg/m3] | mass density, 298.15 K [kg/m3] | mass density, 303.15 K [kg/m3] | mass density, 308.15 K [kg/m3] | mass density, 313.15 K [kg/m3] | speed of sound, 293.15 K [m/s] | speed of sound, 298.15 K [m/s] | speed of sound, 303.15 K [m/s] | speed of sound, 308.15 K [m/s] | speed of sound, 313.15 K [m/s]
m1 = 0.05 | 1007.77 | 1006.5 | 1004.91 | 1003.05 | 1001.02 | 1491.8 | 1505.7 | 1517.8 | 1528.3 | 1537.3
m1 = 0.055 | 1008.68 | 1007.4 | 1005.81 | 1003.92 | 1001.99 | 1492.6 | 1506.5 | 1518.6 | 1529.1 | 1538.1
m1 = 0.06 | 1009.59 | 1008.29 | 1006.72 | 1004.79 | 1002.85 | 1493.5 | 1507.3 | 1519.4 | 1529.8 | 1538.8
m1 = 0.065 | 1010.49 | 1009.18 | 1007.61 | 1005.69 | 1003.72 | 1494.3 | 1508.2 | 1520.2 | 1530.6 | 1539.6
m1 = 0.07 | 1011.48 | 1010.16 | 1008.56 | 1006.61 | 1004.62 | 1495.1 | 1509 | 1521 | 1531.4 | 1540.4
m1 = 0.075 | 1012.36 | 1011.1 | 1009.46 | 1007.55 | 1005.58 | 1496 | 1509.8 | 1521.8 | 1532.1 | 1541.1
m1 = 0.08 | 1013.3 | 1011.98 | 1010.34 | 1008.42 | 1006.46 | 1496.8 | 1510.6 | 1522.6 | 1532.9 | 1541.9
m1 = 0.085 | 1014.21 | 1012.93 | 1011.23 | 1009.29 | 1007.35 | 1497.7 | 1511.4 | 1523.4 | 1533.7 | 1542.7
m1 = 0.09 | 1015.18 | 1013.88 | 1012.18 | 1010.25 | 1008.33 | 1498.5 | 1512.2 | 1524.2 | 1534.4 | 1543.4
m1 = 0.1 | 1016.99 | 1015.7 | 1014.08 | 1011.99 | 1010.23 | 1500.1 | 1513.9 | 1525.8 | 1536 | 1544.9
